Our source for the fold induction values is patent publication US20260232662A1, “MIR-124 INDUCER, AND PREPARATION METHOD THEREFOR AND USE THEREOF” (NANJING SYNNOCARE PHARMACEUTICAL TECHNOLOGY CO., LTD., priority 2023, published 2026).

The assay has as its system miR-124. Nature of the assay: Induction of miR-124 expression in PBMC cells (qPCR). The class given is cell-based. Particulars: Homo sapiens, 72 h, 0.1 μM compound, human PBMCs stimulated with PMA/ionomycin, miR-191 reference gene, read-out: miR-124 expression, Fold change vs DMSO. Here is the method: This study evaluated the ability of the compound of the present invention to influence miR-124 transcriptional activity in vitro. The experiment analyzed miR-124 expression in human PBMCs (Sailybio) using quantitative PCR (qPCR).
Thawed human PBMCs (1 mL) were added to 19 mL of culture medium (RPMI1640+10% hFBS+1‰ 2-mercaptoethanol) and the PBMCs were incubated in a cell culture incubator for 30 minutes. The PBMCs were collected and the cells (3.0*10^6 cells/well/3 mL) were resuspended in medium containing PMA (10 ng/mL; Invivogen) and ionomycin (200 ng/mL; Invivogen). The cells were incubated in a 6-well plate for 48 hours. Diluted compound was added to the cells to achieve a final concentration of 0.1 μM. After 72 hours, the samples were centrifuged and the cells were collected.
Total miRNA was extracted from the cells using the MiPure Cell/Tissue miRNA Kit (Vazyme) according to the manufacturer's instructions, followed by purification. The purified samples were treated with genomic DNA elimination buffer, and reverse transcription was performed using a GeneAmp PCR System. The resulting cDNA was subjected to quantitative real-time PCR (qPCR) analysis on a QuantStudio™ 7 Flex Real-Time PCR System. Data analysis was performed using the QuantStudio 7 software with default settings to automatically determine Ct values, and the results were exported. In this assay, miR-191 was used as the reference gene, and the DMSO-treated group served as the control. The relative expression of miR-124 was calculated using the following formula: […]
In the case of `Cn1c(=O)c(Nc2ccc(OC(F)(F)F)cc2)nc2c(Cl)cccc21` [Compound 1, 5-Chloro-1-methyl-3-((4-(trifluoromethoxy)phenyl)amino) quinoxalin-2(1H)-one], the fold induction at 0.1 µM worked out at 16.

With `FC(F)(F)Oc1ccc(Nc2nc3c(Cl)cccc3n3cnnc23)cc1` [Compound 6], the fold induction at 0.1 µM is 11.9. Take `FC(F)(F)Oc1ccc(NC2=Nc3c(Cl)cccc3N3CCN=C23)cc1` [Compound 9]: the fold induction at 0.1 µM came out at 26.9. As for `Cn1c(=O)c(Nc2ccc(SC(F)(F)F)cc2)nc2c(Cl)cccc21` [Compound 10], the figure is 15.4; as for `Cn1c(=O)c(Nc2ccc(C(F)(F)F)cc2)nc2c(Cl)cccc21` [Compound 11], 18.4. As for `Cn1c(=O)c(Nc2ccc3c(c2)OC(F)(F)O3)nc2c(Cl)cccc21` [Compound 12], the figure is 22; as for `Cn1c(=O)c(Nc2ccc(OC(F)(F)F)cc2)nc2c(F)cc(Cl)cc21` [Compound 13], 20.9; as for `Cn1c(=O)c(Nc2ccc3c(c2)OC(F)(F)O3)nc2c(F)cc(Cl)cc21` [Compound 14], 24.7. Regarding `FC(F)(F)Sc1ccc(Nc2nc3c(Cl)cccc3n3ccnc23)cc1` [Compound 15], the fold induction at 0.1 µM came to 12.7.

`FC(F)(F)c1ccc(Nc2nc3c(Cl)cccc3n3ccnc23)cc1` [Compound 16]: the fold induction at 0.1 µM amounted to 13.4. As for `FC1(F)Oc2ccc(Nc3nc4c(Cl)cccc4n4ccnc34)cc2O1` [Compound 17], the figure is 19.

For `FC(F)Oc1ccc(Nc2nc3c(Cl)cccc3n3ccnc23)cc1` [Compound 21], the fold induction at 0.1 µM came to 15.5.

In the case of `FS(F)(F)(F)(F)c1ccc(Nc2nc3c(Cl)cccc3n3ccnc23)cc1` [Compound 22], the fold induction at 0.1 µM came to 15.3. As for `Fc1cc(Nc2nc3c(Cl)cccc3n3ccnc23)ccc1C(F)(F)F` [Compound 28], the figure is 10.4. The figure for `FC(F)(F)c1ccc(Nc2nc3c(Cl)cccc3n3ccnc23)cc1Cl` [Compound 29] is 9.32; for `FC(F)(F)c1ccc(Nc2nc3c(Cl)cccc3n3ccnc23)nc1` [Compound 34] it is 14.7; for `FC1(F)Cc2cc(Nc3nc4c(Cl)cccc4n4ccnc34)ccc2O1` [Compound 39, 6-Chloro-N-(2,2-difluoro-2,3-dihydrobenzofuran-5-yl) imidazolo [1,2-a] quinoxalin-4-amine] it is 16.8.

On to `FC1(F)Oc2ccc(Nc3nc4c(Cl)cccc4n4ccnc34)cc2C1(F)F` [Compound 40, 6-Chloro-N-(2,2,3,3-tetrafluoro-2,3-dihydrobenzofuran-5-yl) imidazolo [1,2-a] quinoxalin-4-amine], for which the fold induction at 0.1 µM was found to be 17.5. Regarding `Fc1cccc2c1nc(Nc1ccc(OC(F)(F)F)cc1)c1nccn12` [Compound 41], the fold induction at 0.1 µM turned out to be 24.4. With `Fc1cccc2c1nc(Nc1ccc3c(c1)OC(F)(F)O3)c1nccn12` [Compound 42], the fold induction at 0.1 µM was determined as 14.1. Turning to `Fc1cccc2c1nc(Nc1ccc(OC(F)(F)F)c(Cl)c1)c1nccn12` [Compound 44], the fold induction at 0.1 µM came out at 17.5. Regarding `Fc1cccc2c1nc(Nc1ccc(C(F)(F)F)cc1)c1nccn12` [Compound 45], the fold induction at 0.1 µM turned out to be 17.9. With `Fc1cc(Nc2nc3c(F)cccc3n3ccnc23)ccc1C(F)(F)F` [Compound 46], the fold induction at 0.1 µM is 9.99.

For `Fc1cccc2c1nc(Nc1ccc(C(F)(F)F)c(Cl)c1)c1nccn12` [Compound 47], the fold induction at 0.1 µM amounted to 9.86. As to `FC(F)(F)Oc1ccc(Nc2nc3c(Br)cccc3n3ccnc23)cc1` [Compound 48], the fold induction at 0.1 µM amounted to 20.4.

As to `Fc1cc(Nc2nc3c(Br)cccc3n3ccnc23)ccc1OC(F)(F)F` [Compound 49], the fold induction at 0.1 µM came out at 19.5. For the compound `FC(F)(F)Oc1ccc(Nc2nc3c(Br)cccc3n3ccnc23)cc1Cl` [Compound 50], the fold induction at 0.1 µM stood at 18.5. Take `FC(F)(F)c1ccc(Nc2nc3c(Br)cccc3n3ccnc23)cc1` [Compound 51]: the fold induction at 0.1 µM stood at 23.1. In the case of `Fc1cc(Nc2nc3c(Br)cccc3n3ccnc23)ccc1C(F)(F)F` [Compound 52], the fold induction at 0.1 µM came out at 22.3. `Fc1cc(Cl)cc2c1nc(Nc1ccc(OC(F)(F)F)cc1)c1nccn12` [Compound 54]: the fold induction at 0.1 µM was 14.9.

Take `Fc1cc(Cl)cc2c1nc(Nc1ccc3c(c1)OC(F)(F)O3)c1nccn12` [Compound 55]: the fold induction at 0.1 µM stood at 22.3. The figure for `Fc1cc(Nc2nc3c(F)cc(Cl)cc3n3ccnc23)ccc1OC(F)(F)F` [Compound 56] is 17.2. On to `Fc1cc(Cl)cc2c1nc(Nc1ccc(C(F)(F)F)cc1)c1nccn12` [Compound 58], for which the fold induction at 0.1 µM amounted to 27.3.

Take `FC(F)(F)Oc1ccc(Nc2nc3c(Cl)cc(Cl)cc3n3ccnc23)cc1` [Compound 61]: the fold induction at 0.1 µM was 12.1. `FC(F)(F)c1ccc(Nc2nc3c(Cl)cc(Cl)cc3n3ccnc23)cc1` [Compound 62]: the fold induction at 0.1 µM was 15.5. On to `Fc1cc(Nc2nc3c(Cl)cc(Cl)cc3n3ccnc23)ccc1C(F)(F)F` [Compound 63], for which the fold induction at 0.1 µM is 18.4. As for `FC(F)(F)Oc1ccc(Nc2nc3c(Cl)cc(Cl)cc3n3ccnc23)cc1Cl` [Compound 66], the figure is 22.7; as for `Fc1cc(NC2=Nc3c(Cl)cccc3N3CCN=C23)ccc1C(F)(F)F` [Compound 69], 22.9. As for `FC(F)(F)Oc1ccc(NC2=Nc3c(Cl)cccc3N3CCN=C23)cc1Cl` [Compound 72], the figure is 19. As for `Fc1cccc2c1N=C(Nc1ccc(OC(F)(F)F)cc1)C1=NCCN12` [Compound 73], the fold induction at 0.1 µM came out at 8.59. Take `Fc1cccc2c1N=C(Nc1ccc(C(F)(F)F)cc1)C1=NCCN12` [Compound 74]: the fold induction at 0.1 µM was 31.6. For the compound `FC(F)(F)Oc1ccc(NC2=Nc3c(Br)cccc3N3CCN=C23)cc1` [Compound 79], the fold induction at 0.1 µM stood at 17.8. The figure for `FC(F)(F)c1ccc(NC2=Nc3c(Br)cccc3N3CCN=C23)cc1` [Compound 80] is 19.8; for `Fc1cc(NC2=Nc3c(Br)cccc3N3CCN=C23)ccc1C(F)(F)F` [Compound 81] it is 15.3. The figure for `Fc1cc(NC2=Nc3c(Br)cccc3N3CCN=C23)ccc1OC(F)(F)F` [Compound 83] is 18.3; for `FC(F)(F)Oc1ccc(NC2=Nc3c(Cl)cc(Cl)cc3N3CCN=C23)cc1` [Compound 85] it is 10.4. As for `FC(F)(F)Oc1ccc(NC2=Nc3c(Cl)cc(Cl)cc3N3CCN=C23)cc1Cl` [Compound 87], the figure is 15.8. As to `Fc1cc(Cl)cc2c1N=C(Nc1ccc(OC(F)(F)F)cc1)C1=NCCN12` [Compound 91], the fold induction at 0.1 µM was 27.6.

On to `Fc1cc(NC2=Nc3c(F)cc(Cl)cc3N3CCN=C23)ccc1OC(F)(F)F` [Compound 92], for which the fold induction at 0.1 µM was 18.8. Take `Fc1cc(Cl)cc2c1N=C(Nc1ccc(C(F)(F)F)cc1)C1=NCCN12` [Compound 95]: the fold induction at 0.1 µM worked out at 27. As for `Fc1cc(NC2=Nc3c(F)cc(Cl)cc3N3CCN=C23)ccc1C(F)(F)F` [Compound 96], the figure is 17.7; as for `Fc1cccc2nc(Nc3ccc(OC(F)(F)F)cc3)c3nccn3c12` [Compound B2, 9-fluoro-N-(4-(trifluoromethoxy)phenyl)imidazolo [1,2-a]quinoxalin-4-amine], 37.4. As for `FC(F)(F)Oc1ccc(Nc2nc3cccc(Br)c3n3ccnc23)cc1` [Compound B3, 9-bromo-N-(4-(trifluoromethoxy)phenyl)imidazolo [1,2-a]quinoxalin-4-amine], the figure is 23.5. As for `Fc1ccc2nc(Nc3ccc(OC(F)(F)F)cc3)c3nccn3c2c1` [Compound B5, 8-fluoro-N-(4-(trifluoromethoxy)phenyl)imidazolo [1,2-a]quinoxalin-4-amine], the figure is 31.3.

As for `FC(F)(F)Oc1ccc(Nc2nc3ccc(Br)cc3n3ccnc23)cc1` [Compound B6, 8-bromo-N-(4-(trifluoromethoxy)phenyl)imidazolo [1,2-a]quinoxalin-4-amine], the fold induction at 0.1 µM was 22.

Take `Fc1ccc2c(c1)nc(Nc1ccc(OC(F)(F)F)cc1)c1nccn12` [Compound B8, 7-fluoro-N-(4-(trifluoromethoxy)phenyl)imidazolo [1,2-a]quinoxalin-4-amine]: the fold induction at 0.1 µM came to 33.5. On to `FC(F)(F)Oc1ccc(Nc2nc3ccc(Cl)c(Cl)c3n3ccnc23)cc1` [Compound B16, 8,9-dichloro-N-(4-(trifluoromethoxy)phenyl)imidazolo [1,2-a]quinoxalin-4-amine], for which the fold induction at 0.1 µM amounted to 33.4.

On to `Fc1ccc2nc(Nc3ccc(OC(F)(F)F)cc3)c3nccn3c2c1Cl` [Compound B17, 9-chloro-8-fluoro-N-(4-(trifluoromethoxy)phenyl)imidazolo [1,2-a]quinoxalin-4-amine], for which the fold induction at 0.1 µM came to 31.9.
